Experimental data reported in US20110060013A1, “THIAZOLES AND PYRAZOLES USEFUL AS KINASE INHIBITORS” (VERTEX PHARMACEUTICALS INCORPORATED, priority 2007, published 2011).
pKi: −log10 of the molar value.

Assays:
Aurora-2 (Aurora A) = target: T1, Aurora-2 (Aurora A) (Homo sapiens, UniProt O14965); assay: Aurora-2 (Aurora A) inhibition, coupled enzyme assay; format: biochemical; details: 400 μM ATP, 570 μM Kemptide, 40 nM Aurora-2, 30° C.
T1 sequence (O14965 1-403): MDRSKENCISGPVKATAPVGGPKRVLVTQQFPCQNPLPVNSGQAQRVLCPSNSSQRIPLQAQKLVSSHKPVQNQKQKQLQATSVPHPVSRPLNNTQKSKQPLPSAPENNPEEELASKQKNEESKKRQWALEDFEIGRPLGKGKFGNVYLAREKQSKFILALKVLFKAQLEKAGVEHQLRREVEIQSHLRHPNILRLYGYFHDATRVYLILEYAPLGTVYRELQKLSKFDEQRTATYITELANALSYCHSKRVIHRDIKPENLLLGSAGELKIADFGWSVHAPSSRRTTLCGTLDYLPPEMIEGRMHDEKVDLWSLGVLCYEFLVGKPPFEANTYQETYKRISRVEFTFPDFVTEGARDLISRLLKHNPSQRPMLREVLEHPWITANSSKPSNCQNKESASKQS
Procedure: Compounds were screened for their ability to inhibit Aurora-2 using a standard coupled enzyme assay (Fox et al., Protein Sci., (1998) 7, 2249). Assays were carried out in a mixture of 100 mM Hepes (pH7.5), 10 mM MgCl2, 1 mM DTT, 25 mM NaCl, 2.5 mM phosphoenolpyruvate, 300 μM NADH, 30 μg/ml pyruvate kinase and 10 μg/ml lactate dehydrogenase. Final substrate concentrations in the assay were 400 μM ATP (Sigma Chemicals) and 570 μM peptide (Kemptide, American Peptide, Sunnyvale, Calif.). Assays were carried out at 30° C. and in the presence of 40 nM Aurora-2.
An assay stock buffer solution was prepared containing all of the reagents listed above, with the exception of Aurora-2 and the test compound of interest. 55 μl of the stock solution was placed in a 96 well plate followed by addition of 2 μl of DMSO stock containing serial dilutions of the test compound (typically starting from a final concentration of 7.5 μM). The plate was preincubated for 10 minutes at 30° C. and the reaction initiated by addition of 10 μl of Aurora-2. Initial reaction rates were determined with a Molecular Devices SpectraMax Plus plate reader over a 10 minute time course. IC50 and Ki data were calculated from non-linear regression analysis using the Prism software package (GraphPad Prism version 3.0cx for Macintosh, GraphPad Software, San Diego Calif., USA).

Aurora-1 (Aurora B) = Aurora-1 (Aurora B) (Homo sapiens, UniProt Q96GD4); assay: Aurora-1 (Aurora B) inhibition assay (radiometric); format: biochemical; details: 800 μM [γ-33P]-ATP, Kemptide, 25° C., 3 hours
Sequence of Aurora-1 (Aurora B) (Q96GD4 whole entry): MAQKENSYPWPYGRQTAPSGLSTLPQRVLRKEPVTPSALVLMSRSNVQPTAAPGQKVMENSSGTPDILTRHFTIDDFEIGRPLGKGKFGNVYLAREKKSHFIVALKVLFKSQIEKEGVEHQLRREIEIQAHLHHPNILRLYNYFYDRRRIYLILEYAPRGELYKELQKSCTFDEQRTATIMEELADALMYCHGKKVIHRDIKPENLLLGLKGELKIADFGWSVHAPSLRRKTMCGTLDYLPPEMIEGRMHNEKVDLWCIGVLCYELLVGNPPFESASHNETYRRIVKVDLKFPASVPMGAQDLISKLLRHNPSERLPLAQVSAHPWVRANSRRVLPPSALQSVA
Procedure: An assay buffer solution was prepared which consisted of 25 mM HEPES (pH 7.5), 10 mM MgCl2, 0.1% BSA and 10% glycerol. A 22 nM Aurora-B solution, also containing 1.7 mM DTT and 1.5 mM Kemptide (LRRASLG), was prepared in assay buffer. To 22 μL of the Aurora-B solution, in a 96-well plate, was added 2 μl of a compound stock solution in DMSO and the mixture allowed to equilibrate for 10 minutes at 25° C. The enzyme reaction was initiated by the addition of 16 μl stock [γ-^33P]-ATP solution (˜20 nCi/μL) prepared in assay buffer, to a final assay concentration of 800 μM. The reaction was stopped after 3 hours by the addition of 16 μL 500 mM phosphoric acid and the levels of ^33P incorporation into the peptide substrate were determined by the following method.
A phosphocellulose 96-well plate (Millipore, Cat no. MAPHNOB50) was pre-treated with 100 μL of a 100 mM phosphoric acid prior to the addition of the enzyme reaction mixture (40 μL). […] Levels of non-enzyme catalyzed background radioactivity were determined by adding 16 μL of the 500 mM phosphoric acid to control wells, containing all assay components (which acts to denature the enzyme), prior to the addition of the [γ-^33P]-ATP solution. Levels of enzyme catalyzed ^33P incorporation were calculated by subtracting mean background counts from those measured at each inhibitor concentration. […]

| pKi (Aurora-2 (Aurora A)) | pKi (Aurora-1 (Aurora B)) | Structure (SMILES) |
| --- | --- | --- |
| > 7.00 | > 6.00 | Cc1cnc(Nc2cc(N3CC[C@H](F)C3)cc(Sc3ccc(NC(=O)C4CC4)cc3)n2)s1 [Compound 1, (S)-N-(4-(4-(3-Fluoropyrrolidin-1-yl)-6-(5-methylthiazol-2-ylamino)pyridin-2-ylthio)phenyl)cyclopropanecarboxamide] |
| > 7.00 | > 6.00 | Cc1cc(Nc2cc(N3CC[C@H](F)C3)cc(Sc3ccc(NC(=O)C4CC4)cc3)n2)[nH]n1 [Compound 2, (S)-N-(4-(4-(3-Fluoropyrrolidin-1-yl)-6-(3-methyl-1H-pyrazol-5-ylamino)pyridin-2-ylthio)phenyl)cyclopropanecarboxamide] |
